For test [1], the system named is HT-29 human colon cancer cell. Description: In vitro antitumor activity evaluation (SRB/MTT, 72 hours), HT-29. Type of test: cell-based. As to conditions: Logit model, read-out: IC50 Colon cancer HT29. How it is done: (§1) The tumor cell cultured in vitro being administrated with fluoroalkoxycombretastatin for 72 hours, the MTT and SRB assays was used to evaluate its inhibition of tumor proliferation.
(§2) Cell groups: H460 human lung cancer cell, SGC7901: human stomach cancer cell, HT-29 human colon cancer cell, Bel-7402 human liver cancer cell.
(§3) Experiment design: cells were warm-cultured with the compounds in different concentrations (100, 10, 1, 0.1, 0.01, 0.001 μM) for 72 hours. SRB assay was used to evaluate the inhibition degree of the compounds to cell proliferation. The inhibition rate was calculated, and IC50 was calculated by using Logit model according to the inhibition rate. And the antitumor activity of compounds in vitro was compared.
(§4) The inhibition rate was expressed using the following equation: Inhibition rate (%)=[(average OD value of control group−average OD value of experimental group)/average OD value of control group]×100%.

Test [2] relates to H460 human lung cancer cell. The test is described as follows: In vitro antitumor activity evaluation (SRB/MTT, 72 hours), H460. The note with it: Logit model, read-out: IC50 Non-small cell lung cancer H460. It counts as cell-based. How it is done: as §1, §2, §3, §4
For test [3], the system named is human umbilical vein endothelial cells (HUVEC). The test is described as follows: In vitro neovascular inhibition evaluation. Type of test: cell-based. The note with it: same method as Example 15 (72 hours). How it is done: as §1, §3, §4
Anti-angiogenesis effects of fluoroalkoxycombretastatins were assessed in human umbilical vein endothelial cells (HUVEC) using the same method in Example 15.

In test [4] the test system is Bel-7402 human liver cancer cell. Description: In vitro antitumor activity evaluation (SRB/MTT, 72 hours), Bel-7402. It counts as cell-based. As to conditions: Logit model. The procedure: as §1, §2, §3, §4
For test [5], the system named is SGC7901 human stomach cancer cell. The test is described as follows: In vitro antitumor activity evaluation (SRB/MTT, 72 hours), SGC-7901. Type of test: cell-based. The note with it: Logit model. How it is done: as §1, §2, §3, §4
The next test relates to tubulin. As to conditions: U.S. Pat. No. 5,561,122; WO 9935150; cited from earlier work.
Another test concerns tumor. The note with it: within 4 to 6 hours after the treatment of CA-4, cancer patients; cited from earlier work.
Where [6] appears, read: Homo sapiens, NCI-H460, SRB assay.
Setting [7] is: Homo sapiens, Bel-7402, SRB assay.
[8] abbreviates: Homo sapiens, SGC-7901, SRB assay.

SMILES strings stand for the structures. Like-named read-outs stand apart in the source and are kept apart here.

Here are results for 6 compounds from patent publication US7786098B2, “Fluoroalkoxycombretastatin derivatives, method for producing the same and use thereof” (Zhejiang Dade Pharmaceutical Group Co. Ltd., priority 2006, dated 2010).

Broadly, the IC50 is the concentration at which inhibition is half-maximal.

For the compound `COc1cc(/C=C\c2ccc(OC(F)F)c(O)c2)cc(OC)c1OC` [DD8011, (Z)-1-(3,4,5-trimethoxyphenyl)-2-(3′-hydroxy-4′-difluoromethoxyphenyl)-ethene], the IC50 came to 3000 nM in test [1] (Homo sapiens, HT-29, SRB assay); 44 nM in test [2] (setting [6]); 2 nM in test [3] (Homo sapiens, HUVEC); 920 nM in test [4] (setting [7]); 22 nM in test [5] (setting [8]).

Regarding `COc1ccc(/C=C\c2cc(OC)c(OC)c(OC)c2)cc1O` [CA-4, combretastatin A-4, reference compound], the IC50 in test [1] (SRB assay) amounted to 2380 nM; in test [2] (SRB assay), 27 nM; in test [3] it was 3 nM; in test [4] (SRB assay), 750 nM; in test [5] (SRB assay) it was 10 nM. The “inhibition of tubulin polymerization” value with tubulin is “exceptionally strong inhibitors of tubulin polymerization”. Besides, in the test on tumor, the blood flow entry is listed as “decreased obviously”. The tumor cells died result in the test on tumor was “more than 95%”.

On to `COc1cc(/C=C\c2ccc(OCC(F)(F)F)c(O)c2)cc(OC)c1OC` [DD8031, (Z)-1-(3,4,5-trimethoxyphenyl)-2-(3′-hydroxy-4′-trifluoroethoxyphenyl)-ethene], for which the IC50 in test [1] (Homo sapiens, HT-29, SRB assay) was 79 nM; in test [2] (setting [6]), 5 nM; in test [3] (Homo sapiens, HUVEC) it was 1 nM; in test [4] (setting [7]), 300 nM; in test [5] (setting [8]), 5 nM.

On to `COc1ccc(/C=C\c2cc(OC)c(OC)c(OC)c2)c(O)c1O` [CA-1, combretastatin A-1], for which the “inhibition of tubulin polymerization” value in the test on tubulin is reported as “exceptionally strong inhibitors of tubulin polymerization”.

For the compound `COc1cc(/C=C\c2ccc(OC(F)F)c(N)c2)cc(OC)c1OC` [DD8021, (Z)-1-(3,4,5-trimethoxyphenyl)-2-(3′-amino-4′-difluoromethoxyphenyl)-ethene], the half-maximal inhibitory concentration (IC50) in test [1] (Homo sapiens, HT-29, SRB assay) stood at 2250 nM; in test [2] (setting [6]) it was 36 nM; in test [3] (Homo sapiens, HUVEC) it was 2 nM; in test [4] (setting [7]), 830 nM; in test [5] (setting [8]) it was 18 nM.

Turning to `COc1cc(/C=C\c2ccc(OCC(F)(F)F)c(N)c2)cc(OC)c1OC` [DD8041, (Z)-1-(3,4,5-trimethoxyphenyl)-2-(3′-amino-4′-trifluoroethoxyphenyl)-ethene], the IC50 was 68 nM in test [1] (Homo sapiens, HT-29, SRB assay); 5 nM in test [2] (setting [6]); 1 nM in test [3] (Homo sapiens, HUVEC); 280 nM in test [4] (setting [7]); 3 nM in test [5] (setting [8]).
